Tests used:
PLK-1 mRNA = experiment: LS411N Xenograft Assay; format: in vivo, Nu/Nu mice; conditions: percent knock down of PLK-1 mRNA vs control in LS411N tumors, IV 3 mg/kg daily for three days
Procedure: Female Nu/Nu mice (6-8 weeks old) were implanted subcutaneously with 5×10^6 LS411N cells. Tumor growth was monitored by caliper measurement before treatment initiation. Mice bearing 150-250 mm^3 subcutaneous tumors were randomized and enrolled in the study. The stock siRNA formulations were diluted to […] with PBS for dosing. Animals enrolled in different groups received a single daily bolus IV injection of 3 mg/kg siRNA for three days. Tumors were harvested 24 hours post last injection to assess target gene regulation by qRT-PCR.
Lipid nanoparticles comprising lipid compounds of formula (I) and the PLK1-424 siRNA duplex sequence listed above were tested in the LS411N Xenograft Assay. The results of this assay are given in Table 5 below as a percent knock down of PLK-1 mRNA as compared to the control when administered as a single daily dose for three days at a dose of 3 mg/kg.

human leptin = experiment: Mouse intravenous tail vein injection of modified synthetic leptin mRNA, human leptin ELISA; format: in vivo, C57BL/6 mouse; conditions: human leptin in mouse plasma, 10 μg leptin mRNA, 24 h
[1] = system: plasma Factor VII enzyme activity; experiment: Mouse Factor VII dosing / Factor VII Activity Assay; format: in vivo; conditions: percent knock down of plasma Factor VII activity, CD-1 mice, 48 h; for KD FVII 0.3 mg/kg: single IV dose 0.3 mg/kg, LNP Chol/DSPC/PEG-DMG 45/44/9/2
Outline: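 Female CD-1 mice (~25 g) received a single IV tail-vein dose of lipid-nanoparticle-formulated Factor VII siRNA (0.3 or 0.03 mg/kg). Plasma taken ~48 h later; FVII activity measured chromogenically against vehicle-control plasma standard curve, reported as % knockdown.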

| Compound | LS411 KD 3 × 3 mg/Kg (PLK-1 mRNA; LNP Chol/DSPC/PEG-DSG 45/44/9/2) | LS411 KD 3 × 3 mg/Kg (PLK-1 mRNA; LNP Chol/DSPC/S010 45/44/9/2) | Leptin expression IV-C57BI/6, 24 h (human leptin) | KD FVII 0.03 mg/kg ([1]; single IV dose 0.03 mg/kg, LNP Chol/DSPC/S010 45/44/9/2) | KD FVII 0.3 mg/kg [1] |
| --- | --- | --- | --- | --- | --- |
| CCCCC/C=C\C/C=C\CCCCCCCC(=O)OCCCCOc1cc(CN(C)C)cc(OCCCCOC(=O)CCCCCCC/C=C\C/C=C\CCCCC)c1 [Example 38, (9Z,9′Z,12Z,12′Z)-((5-((dimethylamino)methyl)-1,3-phenylene)bis(oxy))bis(butane-4,1-diyl)bis(octadeca-9,12-dienoate)] | 58% | 60% | 17.21 ng/mL | 43.6% | 99% |
| CCCCCCCCCCOC(=O)CCCCCCCOc1cc(CN(C)C)cc(OCCCCCCCC(=O)OCCCCCCCCCC)c1 [Example 57, didecyl 8,8′-((5-((dimethylamino)methyl)-1,3-phenylene)bis(oxy))dioctanoate] |  | 60% | 9.17 ng/mL |  | 96.7% |

From patent publication US10124065B2, “Lipids and lipid compositions for the delivery of active agents” (Novartis AG, priority 2013, dated 2018)
